Series [1] concerns the target non-native GAT polypeptide 25-8H7 (glyphosate-N-acetyltransferase), SEQ ID NO: 907 (Bacillus licheniformis, UniProt Q65LG7, E119R/E14D/E65Q/E67K/E68K/G37R/G38S/I132T/I135V/I15L/I19V/I53V/I91V/K101R/K144R/K58Q/L105M/L106I/L145I/L26I/L36T/L97I/M75V/R47G/R92K/T33S/T89S/V114A/Y130F/Y31F/Y45F). Nature of the series: GAT activity with respect to glyphosate, aspartate and serine (Example 29, Table 21). Conditions: 25 mM Hepes, pH 6.8, 10% ethylene glycol.

Series [2] has as its target T1, Bacillus licheniformis strain B6 glyphosate-N-acetyltransferase (GAT), native, SEQ ID NO:7 (Bacillus paralicheniformis, UniProt A0AAW6KBE1).
T1 construct: untagged
In words: Apparent KM and kcat of purified GAT (Example 2). Type of series: biochemical.
Description: Lysis of the cells was effected by the addition of 1 ml of the following buffer to 0.2 g of cells: 25 mM HEPES, pH 7.3, 100 mM KCl and 10% methanol (HKM) plus 0.1 mM EDTA, 1 mM DTT, 1 mg/ml chicken egg lysozyme, and a protease inhibitor cocktail obtained from Sigma and used according to the manufacturer's recommendations. After 20 minutes incubation at room temperature (e.g., 22-25° C.), lysis was completed with brief sonication. The lysate was centrifuged and the supernatant was desalted by passage through Sephadex G25 equilibrated with HKM. Partial purification was obtained by affinity chromatography on CoA Agarose (Sigma). The column was equilibrated with HKM and the clarified extract was allowed to pass through under hydrostatic pressure.
Purification to homogeneity was obtained by gel filtration of the partially purified protein through Superdex 75 (Pharmacia).
Initial reaction rates were determined using mass spectrometric detection of N-acetyl glyphosate. Five μl were repeatedly injected into the instrument and reaction rates were obtained by plotting reaction time vs area of the integrated peak (FIG. 6).

In series [3] the test system is native or low activity GAT enzymes (glyphosate-N-acetyltransferase). In words: Kinetics typical of native or low activity GAT enzymes (Example 4). The format is biochemical.
Series [4] relates to high activity GAT enzymes (glyphosate-N-acetyltransferase). In words: Kinetics typical of high activity GAT enzymes (Example 5). Type of series: biochemical.
The subject of series [5] is GAT polypeptide (glyphosate-N-acetyltransferase), SEQ ID NO:445. In words: Standard spectrophotometric kcat and KM determination (Example 7). The format is biochemical. The following applies: 20 mM HEPES pH 6.8, 10% ethylene glycol, 0.2 mM acetyl CoA, about 23° C. The protocol:
(§1) KM was calculated from the initial reaction rates obtained from concentrations of glyphosate ranging from 0.125 to 10 mM, using the Lineweaver-Burke transformation of the Michaelis-Menten equation. kcat/KM was determined by dividing the value determined for kcat by the value determined for KM.

Series [6] deals with GAT 20-30C6 (SEQ ID NO: 683) variant D34A. In words: GAT kinetics, 0 KCl, Bradford (Example 20, Table 12). The format is biochemical. The following applies: Bradford protein assay. The protocol: as §1
(§2) The amino acids aspartic acid (Asp, D), histidine (His, H) and cysteine (Cys, C) are known to be associated with the active sites of various acetyltransferase enzymes. To determine if any such residues play a role in GAT activity, all D, C, and H residues of GAT20-30C6 (SEQ ID NO:683) were individually mutated to alanine (Ala, A) and the mutated enzymes assayed for N-acetylglyphosate activity.

Series [7] concerns GAT 20-30C6 (SEQ ID NO: 683) variant H138A. The description is as above. Type of series: biochemical. The following applies: Bradford protein assay. The protocol: as §1, §2
For series [8], the system named is GAT 20-30C6 (SEQ ID NO: 683) variant H138R. Described as above. The format is biochemical. The following applies: Bradford protein assay. As for the experimental part: as §1, §2
The subject of series [9] is GAT 20-30C6 (SEQ ID NO: 683) variant H41A. The series is described as above. Type of series: biochemical. Conditions: Bradford protein assay. The protocol: as §1, §2
Series [10] has as its system GAT 20-30C6 (evolved glyphosate-N-acetyltransferase), SEQ ID NO: 683. Described as above. The format is biochemical. Conditions: Bradford protein assay. The protocol: as §1, §2
In series [11] the test system is GAT 20-30C6 (SEQ ID NO: 683) variant H138S. Described as above. Conditions: Bradford protein assay. The format is biochemical.
Series [12] is described as follows: Transfer of the propionyl group from propionyl CoA to glyphosate, DTNB detection. Type of series: biochemical. The following applies: 1 mM propionyl CoA, 5 mM glyphosate or no glyphosate, 30 minutes. The protocol:
The ability of GAT variants (B6 (SEQ ID NO:7), 0—6D10 (SEQ ID NO:448), 17-15H3 (SEQ ID NO:601), and 20-8H12c (SEQ ID NO:817)) to transfer the propionyl group from propionyl CoA to glyphosate was tested in reaction mixtures containing 5 mM glyphosate or no glyphosate. Propionyl CoA was present at 1 mM. After 30 minutes the reactions were terminated and the presence of free […] was determined by the addition of DTNB.

Series [13] is described as follows: GAT activity with substrate phospho-L-serine (DTNB). The format is biochemical. As for the experimental part:
GAT activity of several GAT polypeptides of the present invention was evaluated with respect to a number of amino acid substrates. The GAT polypeptide, AcCoA and amino substrate were incubated in 25 mM Hepes, pH 6.8, 10% ethylene glycol in the wells of a 96-well polystyrene plate. After 30 minutes, the reactions were stopped by the addition of 30 μl of 10 mM 5,5′-dithiobis-2-nitrobenzoate (DTNB) in 500 mM Tris, pH 7.5. After 2 minutes, absorbance was read at 412 nm in a Spectramax Plus plate reader (Molecular Devices, Sunnyvale, Calif.).

Series [14] is described as follows: Kinetics of D, C, H residue mutants of GAT20-30C6. The format is biochemical. The following applies: 0 KCl; Bradford protein assay.
Excerpt: as §2

Experimental findings from patent US7666644B2, “Glyphosate-N-acetyltransferase (GAT) genes” (Verdia, Inc., priority 2004, dated 2010) are described below.

Sequence of non-native GAT polypeptide 25-8H7 (glyphosate-N-acetyltransferase), SEQ ID NO: 907 (Q65LG7 entry or part of it with the stated changes): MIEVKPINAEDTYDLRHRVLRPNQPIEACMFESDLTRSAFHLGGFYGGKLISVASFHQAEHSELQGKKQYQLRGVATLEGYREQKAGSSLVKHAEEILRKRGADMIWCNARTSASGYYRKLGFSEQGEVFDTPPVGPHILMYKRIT

Regarding `N[C@@H](CO)C(=O)O` [Serine, L-serine], the “kcat ± SE” value in [1] was 6.47 ± 0.308 s⁻¹.

As for `O=C(O)CNCP(=O)(O)O` [glyphosate, N-phosphonomethylglycine], the turnover number (kcat) (in general, the number of substrate molecules converted per active site and unit of time at saturation) was 0.1 s⁻¹ in [2] (from Vmax at known enzyme concentration, 5 mM glyphosate, varying Acetyl CoA); “approximately 1 min^−1” in series [3]; “up to 400 min^−1” in series [4]; 5.37 s⁻¹ in series [5]; 2.12 s⁻¹ in series [6]; below 0.00033 s⁻¹ in series [7]. Moreover, the kcat stood at 0.738 s⁻¹ in series [8], 3.47 s⁻¹ in series [9], 6.43 s⁻¹ in series [10] and 0.0892 s⁻¹ in series [11]. The Michaelis constant (Km) – broadly, the substrate concentration at which the rate is half of its maximum – in series [2] (read-out: KM for glyphosate, apparent, saturating (200 μM) Acetyl CoA, 5 mM morpholine pH 7.7, 20% ethylene glycol) is 2900 ± 200 µM; in series [3] (read-out: KM for glyphosate) it was 1500 to 10000 µM; in [4] it was below 100 µM; in series [5], 500 µM; in series [6] it was 2330 µM; in series [8], 17800 µM. In addition, the Km in series [9] worked out at 4800 µM; in [10], 182 µM; in series [11], 7100 µM.

B1: B6: native GAT enzyme isolated from B. licheniformis strain B6, SEQ ID NO:7 (protein)
chain: MIEVKPINAEDTYEIRHRILRPNQPLEACKYETDLLGGTFHLGGYYRDRLISIASFHQAEHSELEGQKQYQLRGMATLEGYREQKAGSTLIRHAEELLRKKGADLLWCNARTSVSGYYKKLGFSEQGGVYDIPPIGPHILMYKKLT
modifications: Unidentified microorganism derived from soil sample.; B6 GAT
Turning to B1, the “glyphosate-dependent hydrolysis of propionyl CoA” value in [12] was “showed glyphosate-dependent hydrolysis of propionyl CoA”. Besides, in [13], the “activity with phospho-L-serine compared with glyphosate” value was “about 2 times”.

B2: 20-30C6: evolved GAT enzyme, SEQ ID NO:683 (protein)
chain: MIEVKPINAEDTYELRHRVLRPNQPIEACMFESDLLRGAFHLGGFYGGKLISVASFHQAEHTELQGQKQYQLRGVATLEGYREQKAGSSLVKHAEEILRKRGADILWCNARTSASGYYKKLGFSEQGEVFDTPPVGPHILMYKRIT
modifications: D_GE002283_GAT20-30C6
On to B2, for which, in series [14], the “% kcat/Km of 20-30C6” value is reported as 100%.
